Earlier results in US20190105332A1, “METHODS OF TREATING PROSTATE CANCER” (Janssen Oncology, Inc., priority 2017, published 2019).
Where two headings read alike, the source gives them in different places.

Columns and labels:
CYP2D6 = biological target: T1, CYP2D6 (Homo sapiens, UniProt P10635)
T1 construct: from tissue; host or cells: in vivo, trial participants (endogenous hepatic enzyme)

CYP1A2 = biological target: T2, CYP1A2 (Homo sapiens, UniProt P05177); details: abiraterone acetate 1,000 mg daily plus prednisone 5 mg twice daily; single 100 mg theophylline
T2 sequence (P05177 1-516): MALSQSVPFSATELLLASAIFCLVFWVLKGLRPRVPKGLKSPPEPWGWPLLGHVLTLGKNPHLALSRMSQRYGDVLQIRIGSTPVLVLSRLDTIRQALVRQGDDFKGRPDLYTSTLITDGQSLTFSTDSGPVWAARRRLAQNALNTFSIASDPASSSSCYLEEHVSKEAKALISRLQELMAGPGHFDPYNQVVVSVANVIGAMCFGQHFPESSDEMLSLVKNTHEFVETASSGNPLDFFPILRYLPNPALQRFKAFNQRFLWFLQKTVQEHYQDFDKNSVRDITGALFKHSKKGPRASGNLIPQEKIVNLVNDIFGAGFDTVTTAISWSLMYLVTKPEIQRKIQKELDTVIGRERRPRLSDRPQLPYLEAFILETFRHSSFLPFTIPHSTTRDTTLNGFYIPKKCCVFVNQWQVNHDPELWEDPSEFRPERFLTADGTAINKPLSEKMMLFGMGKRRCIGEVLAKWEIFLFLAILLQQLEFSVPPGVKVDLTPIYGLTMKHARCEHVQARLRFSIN

P-glycoprotein (P-gp) = P-glycoprotein (P-gp) (Homo sapiens, UniProt P08183); details: in vitro
[1] = not given; remark: listed apart in the source
[2] = 6-month study
[3] = system: primary human lymphocytes
[4] = rat micronucleus assay
[5] = not given; remark: listed apart in the source
[6] = not given; remark: listed apart in the source
[7] = not given; remark: listed apart in the source
[8] = not given; remark: listed apart in the source
[9] = not given; remark: listed apart in the source
[10] = not given; remark: listed apart in the source
CYP2C8 = biological target: T3, CYP2C8 (Homo sapiens, UniProt P10632); design: from tissue; host or cells: in vivo, healthy human subjects (endogenous enzyme); details: healthy subjects; single dose of 1,000 mg abiraterone acetate
T3 sequence (P10632 1-490): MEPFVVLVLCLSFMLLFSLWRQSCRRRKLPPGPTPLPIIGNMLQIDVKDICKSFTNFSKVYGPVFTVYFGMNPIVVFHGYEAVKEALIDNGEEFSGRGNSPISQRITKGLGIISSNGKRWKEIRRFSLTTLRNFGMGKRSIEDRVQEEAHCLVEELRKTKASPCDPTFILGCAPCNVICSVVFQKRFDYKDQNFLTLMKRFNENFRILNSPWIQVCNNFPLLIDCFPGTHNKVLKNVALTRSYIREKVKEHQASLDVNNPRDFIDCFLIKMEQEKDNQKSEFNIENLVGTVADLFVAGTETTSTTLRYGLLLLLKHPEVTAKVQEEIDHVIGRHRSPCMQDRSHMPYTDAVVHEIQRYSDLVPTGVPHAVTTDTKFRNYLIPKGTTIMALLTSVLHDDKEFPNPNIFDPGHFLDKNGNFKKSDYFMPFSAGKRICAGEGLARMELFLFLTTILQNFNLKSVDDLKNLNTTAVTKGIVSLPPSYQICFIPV

[11] = abiraterone acetate 1,000 mg daily and prednisone 5 mg twice daily
[12] = oral, 2 weeks until day 7 of pregnancy

T1 sequence (P10635 whole entry): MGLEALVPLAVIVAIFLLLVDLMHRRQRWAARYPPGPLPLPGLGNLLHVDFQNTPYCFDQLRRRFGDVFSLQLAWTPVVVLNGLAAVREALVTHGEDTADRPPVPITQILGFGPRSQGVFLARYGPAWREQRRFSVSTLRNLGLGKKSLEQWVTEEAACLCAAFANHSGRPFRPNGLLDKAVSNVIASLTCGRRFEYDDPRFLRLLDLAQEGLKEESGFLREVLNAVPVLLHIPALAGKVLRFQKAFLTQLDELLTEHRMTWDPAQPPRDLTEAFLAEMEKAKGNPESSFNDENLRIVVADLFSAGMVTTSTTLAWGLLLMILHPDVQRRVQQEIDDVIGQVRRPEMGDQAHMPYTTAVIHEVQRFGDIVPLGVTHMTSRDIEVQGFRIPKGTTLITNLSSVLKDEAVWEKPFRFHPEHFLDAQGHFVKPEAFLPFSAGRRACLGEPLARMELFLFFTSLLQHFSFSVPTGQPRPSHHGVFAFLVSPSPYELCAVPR
Sequence of P-glycoprotein (P-gp) (P08183 whole entry): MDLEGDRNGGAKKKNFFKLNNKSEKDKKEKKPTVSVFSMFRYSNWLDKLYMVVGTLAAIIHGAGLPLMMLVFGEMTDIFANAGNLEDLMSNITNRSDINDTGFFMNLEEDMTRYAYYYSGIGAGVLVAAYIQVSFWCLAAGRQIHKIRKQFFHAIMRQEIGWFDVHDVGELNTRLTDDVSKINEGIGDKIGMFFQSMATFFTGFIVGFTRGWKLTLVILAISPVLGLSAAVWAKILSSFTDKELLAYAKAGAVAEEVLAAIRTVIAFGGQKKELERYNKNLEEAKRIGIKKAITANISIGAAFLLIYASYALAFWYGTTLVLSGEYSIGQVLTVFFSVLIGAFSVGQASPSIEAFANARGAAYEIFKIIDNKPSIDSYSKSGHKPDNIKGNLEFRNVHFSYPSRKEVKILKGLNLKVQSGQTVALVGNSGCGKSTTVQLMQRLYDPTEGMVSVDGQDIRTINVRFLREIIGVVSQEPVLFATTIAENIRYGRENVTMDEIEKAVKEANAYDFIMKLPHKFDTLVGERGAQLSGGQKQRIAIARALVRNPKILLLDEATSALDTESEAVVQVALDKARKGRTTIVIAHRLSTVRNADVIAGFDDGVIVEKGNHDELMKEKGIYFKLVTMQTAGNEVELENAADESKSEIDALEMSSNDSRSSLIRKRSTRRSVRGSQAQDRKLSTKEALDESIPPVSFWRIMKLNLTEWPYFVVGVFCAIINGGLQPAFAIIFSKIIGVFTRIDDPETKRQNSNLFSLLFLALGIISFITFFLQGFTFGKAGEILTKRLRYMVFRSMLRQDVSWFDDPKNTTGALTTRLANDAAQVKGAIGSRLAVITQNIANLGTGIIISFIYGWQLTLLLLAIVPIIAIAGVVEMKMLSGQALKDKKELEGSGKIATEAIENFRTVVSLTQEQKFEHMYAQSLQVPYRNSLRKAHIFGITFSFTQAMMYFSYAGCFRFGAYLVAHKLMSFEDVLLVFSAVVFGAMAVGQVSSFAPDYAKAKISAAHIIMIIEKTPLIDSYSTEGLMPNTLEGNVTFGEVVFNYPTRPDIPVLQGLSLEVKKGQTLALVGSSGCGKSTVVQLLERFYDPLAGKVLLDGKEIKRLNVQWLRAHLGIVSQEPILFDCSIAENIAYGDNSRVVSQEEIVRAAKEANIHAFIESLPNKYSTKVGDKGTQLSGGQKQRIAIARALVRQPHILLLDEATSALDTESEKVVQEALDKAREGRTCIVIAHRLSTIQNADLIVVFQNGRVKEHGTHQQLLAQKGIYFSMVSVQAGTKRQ

CC(=O)O[C@H]1CC[C@@]2(C)C(=CC[C@@H]3[C@@H]2CC[C@]2(C)C(c4cccnc4)=CC[C@@H]32)C1 [abiraterone acetate, (3β)-17-(3-pyridinyl) androsta-5,16-dien-3-yl acetate]
increase in AUC of dextromethorphan (CYP2D6 substrate) (CYP2D6; [11]): 2.9 fold
increase in Cmax of dextromethorphan (CYP2D6 substrate) (CYP2D6; [11]): 2.8 fold
increase in AUC for dextrorphan (CYP2D6; abiraterone acetate 1,000 mg daily plus prednisone 5 mg twice daily): approximately 1.3 fold
systemic exposure of theophylline (CYP1A2 substrate) (CYP1A2): no increase
inhibition of P-gp (P-glycoprotein (P-gp)): inhibitor
substrate of P-glycoprotein (P-gp) (P-glycoprotein (P-gp); clinically relevant concentrations): not substrates
octanol-water partition coefficient (Log P): 5.12
pKa of the aromatic nitrogen: 5.19
solubility in water: practically insoluble
carcinogenicity in female rats ([1]; exposure levels up to 0.8 times the human clinical exposure based on AUC): not carcinogenic
carcinogenicity in male rats ([1]; oral 5, 15, and 50 mg/kg/day): increased the combined incidence of interstitial, cell adenomas and carcinomas in the testes at all dose levels tested
carcinogenicity [2]: not carcinogenic
clastogenicity in vitro [3]: not mutagenic in an in vitro microbial mutagenesis (Ames) assay or clastogenic
clastogenicity in vivo [4]: not mutagenic in an in vitro microbial mutagenesis (Ames) assay or clastogenic
exposure at which a reduction in circulating testosterone levels occurred ([5]; 13- and 26-week studies): approximately one half the human clinical exposure
doses with dose-dependent increase in cataracts ([5]; daily oral, 26 weeks, similar to the human clinical exposure based on AUC): ≥ 50 mg/kg/day
doses with atrophy, aspermia/hypospermia, and hyperplasia in the reproductive system ([5]; male rats, 13- and 26-weeks): ≥ 50 mg/kg/day
exposure at which a reduction in circulating testosterone levels occurred ([6]; 13- and 39-week studies): approximately one half the human clinical exposure
cataracts ([6]; 39-week, daily oral, 2 times greater than the clinical exposure based on AUC): no cataracts were observed
doses with atrophy, aspermia/hypospermia, and hyperplasia in the reproductive system ([6]; 39-weeks): ≥ 250 mg/kg/day
30 mg/kg/day in rats relative to the recommended dose of 1,000 mg/day ([7]; based on body surface area): approximately 0.3 times
doses with reduced reproductive organ weights, sperm counts, sperm motility, altered sperm morphology and decreased fertility ([7]; dosed orally for 4 weeks): ≥ 30 mg/kg/day
time after last administration at which effects on male rats were reversible ([7]; rat, in vivo): 16 weeks
dose with pre-implantation loss [8, 12]: 300 mg/kg/day
doses with increased incidence of irregular or extended estrous cycles [8, 12]: ≥ 30 mg/kg/day
mating, fertility, and litter parameters ([8]; rat, in vivo): no differences
time after last administration at which effects on female rats were reversible ([8]; rat, in vivo): 4 weeks
conversion to abiraterone ([9]; likely through esterase activity): not CYP mediated
compound present in feces, share of the administered dose ([9]; oral 14C-abiraterone acetate): approximately 55%
radioactive dose recovered in feces ([9]; oral administration): approximately 88%
radioactive dose recovered in urine ([9]; oral administration): approximately 5%
systemic exposure (AUC) relative to the AUC in patients ([10]; 100 mg/kg/day): ~0.3 times
dose with decreased fetal body weight ([10]; oral, gestational days 6-17): 100 mg/kg/day
doses that caused maternal toxicity ([10]; oral, gestational days 6-17): ≥ 10 mg/kg/day
doses with decreased fetal ano-genital distance ([10]; oral, gestational days 6-17): ≥ 30 mg/kg/day
doses with embryo-fetal lethality, fetal developmental delay and urogenital effects ([10]; rat, in vivo, po): ≥ 10 mg/kg/day
increase in AUC of pioglitazone (CYP2C8 substrate) (CYP2C8): 46%
